Source: patent publication US20230013669A1, “Antibacterial Treatment Using a Cannabinoid and an Active Agent” (priority 2019, published 2023)
Where “and” joins values, the source holds several entries; their conditions need not be identical. Equal values may be shown once.

Test system: Acinetobacter baumannii ATCC 19606 (GN_034)
Assay: Synergy of cannabidiol with cell-wall disrupting agent (CBD MIC in combination, FICI)
Format: cell-based
Procedure: The compounds were stored short term at 4° C.
Analysis was performed using Microsoft Excel.

[1] = CBD with Colistin, Acinetobacter baumannii ATCC 19606
[2] = CBD with MCC_6442, Acinetobacter baumannii ATCC 19606

C=C(C)C1CCC(C)=CC1c1c(O)cc(CCCCC)cc1O (centres unmarked) [Cannabidiol, 2-[3-methyl-6-(1-methylethenyl)-2-cyclohexen-1-yl]-5-pentyl-1,3-benzenediol]
FICI (CBD with Aztreonam at 8 μg/mL, CBD MIC taken as 256 μg/mL): 0.375 | FICI (CBD with Aztreonam at 16 μg/mL, CBD MIC taken as 256 μg/mL): 0.5 | FICI range (CBD with Aztreonam, all tested concentrations (Table 74)): 0.25-1.06 | FICI (CBD with Cefepime at 0.25 μg/mL, CBD MIC taken as 256 μg/mL): 1.016 | FICI (CBD with Cefepime at 0.5 μg/mL, CBD MIC taken as 256 μg/mL): 1.031 | FICI (CBD with Cefepime at 1 μg/mL, CBD MIC taken as 256 μg/mL): 1.0625 | FICI (CBD with Cefepime at 2 μg/mL, CBD MIC taken as 256 μg/mL): 1.125 | FICI (CBD with Cefepime at 4 μg/mL, CBD MIC taken as 256 μg/mL): 0.375 | FICI (CBD with Cefepime at 8 μg/mL, CBD MIC taken as 256 μg/mL): 0.5625 | FICI range (CBD with Cefepime, Synergy table (Table 81)): 0.38 | FICI range (CBD with Cefepime, all tested concentrations (Table 79)): 0.38-1.13 | FICI (CBD with Cefotetan at 4 μg/mL, CBD MIC taken as 256 μg/mL): 1.016 | FICI (CBD with Cefotetan at 8 μg/mL, CBD MIC taken as 256 μg/mL): 1.031 | FICI (CBD with Cefotetan at 16 μg/mL, CBD MIC taken as 256 μg/mL): 1.0625 | FICI (CBD with Cefotetan at 32 μg/mL, CBD MIC taken as 256 μg/mL): 1.125 | FICI (CBD with Cefotetan at 64 μg/mL, CBD MIC taken as 256 μg/mL): 1.25 | FICI (CBD with Cefotetan at 128 μg/mL, CBD MIC taken as 256 μg/mL): 1.5 | FICI range (MIC table) (CBD with Cefotetan, Acinetobacter baumannii ATCC 19606): 1.02-1.5 | FICI (CBD with Ceftazidime at 0.5 μg/mL, Acinetobacter baumannii ATCC 19606): 1.125 | FICI (CBD with Ceftazidime at 1 μg/mL, Acinetobacter baumannii ATCC 19606): 1.25 | FICI (CBD with Ceftazidime at 2 μg/mL, Acinetobacter baumannii ATCC 19606): 1.5 | FICI (CBD with Ceftazidime at 4 μg/mL, Acinetobacter baumannii ATCC 19606): 1.125 | FICI (CBD with Ceftazidime at 8 μg/mL, Acinetobacter baumannii ATCC 19606): 2.0625 | FICI (CBD with Ceftazidime at 16 μg/mL, Acinetobacter baumannii ATCC 19606): 4 | FICI range (MIC table) (CBD with Ceftazidime, Acinetobacter baumannii ATCC 19606): 1.13-4 | FICI (CBD with Cefuroxime at 4 μg/mL, Acinetobacter baumannii ATCC 19606): 1.0625 | FICI (CBD with Cefuroxime at 8 μg/mL, Acinetobacter baumannii ATCC 19606): 1.125 | FICI (CBD with Cefuroxime at 16 μg/mL, Acinetobacter baumannii ATCC 19606): 0.375 | FICI (CBD with Cefuroxime at 32 μg/mL, Acinetobacter baumannii ATCC 19606, listed as CBD): 0.5625 and 0.625 | FICI (CBD with Cefuroxime at 64 μg/mL, Acinetobacter baumannii ATCC 19606): 1 | FICI (CBD with Cefuroxime at 128 μg/mL, Acinetobacter baumannii ATCC 19606): 2 | FICI range (Synergy table) (CBD with Cefuroxime, Acinetobacter baumannii ATCC 19606): 0.38 | FICI (CBD with Colistin at 0.031 μg/mL, Acinetobacter baumannii ATCC 19606): 0.04662 | FICI (CBD with Colistin at 0.062 μg/mL, Acinetobacter baumannii ATCC 19606): 0.06981 | FICI (CBD with Colistin at 0.5 μg/mL, Acinetobacter baumannii ATCC 19606, listed as CBD): 0.501 and 0.5039 | FICI (CBD with Colistin at 1 μg/mL, Acinetobacter baumannii ATCC 19606): 1 | FICI range (MIC table) [1]: 0.05-1 | FICI range (Synergy table) [1]: 0.05-0.5 | FICI range (MIC table) [2]: 0.07-1.02 | FICI range (Synergy table) [2]: 0.09-1.13 | FICI (CBD with MCC_6442 at 0.5 μg/mL, Acinetobacter baumannii ATCC 19606): 1.016 | FICI (CBD with MCC_6442 at 1 μg/mL, Acinetobacter baumannii ATCC 19606): 0.09375 | FICI (CBD with MCC_6442 at 2 μg/mL, Acinetobacter baumannii ATCC 19606): 0.06641 | FICI (CBD with MCC_6442 at 4 μg/mL, Acinetobacter baumannii ATCC 19606): 0.127 | FICI range (CBD with Octapeptin C4, Synergy table (Table 85), listed as CBD): 0.28-0.5 and 0.19-0.5 | FICI range (CBD with Octapeptin C4, all tested concentrations (Table 83), listed as CBD): 0.28-1.13 and 0.19-1.06 | FICI (CBD with Octapeptin C4 at 0.25 μg/mL, CBD MIC taken as 256 μg/mL): 1.031 | FICI (CBD with Octapeptin C4 at 0.25 μg/mL, CBD MIC taken as 256 μg/mL, listed as cannabidiol): 1.016 | FICI (CBD with Octapeptin C4 at 0.5 μg/mL, CBD MIC taken as 256 μg/mL): 1.0625 and 1.031 | FICI (CBD with Octapeptin C4 at 1 μg/mL, CBD MIC taken as 256 μg/mL): 1.125 and 1.0625 | FICI (CBD with Octapeptin C4 at 2 μg/mL, CBD MIC taken as 256 μg/mL): 0.2812 and 0.1875 | FICI (CBD with Octapeptin C4 at 4 μg/mL, CBD MIC taken as 256 μg/mL): 0.5078 and 0.2578 | FICI (CBD with Octapeptin C4 at […], CBD MIC taken as 256 μg/mL): 1.016
